These results are taken from ChEMBL document CHEMBL3425436, “Assessing the oral bioavailability of difluorosialic acid prodrugs, potent viral neuraminidase inhibitors, using a snapshot PK screening assay” (Bioorg Med Chem Lett, 2015).

Series [1] concerns Mus musculus. Kind of series: Total plasma concentration in CD1 mouse assessed as (2R,3R,4R,5R,6R)-5-acetamido-4-amino-2,3-difluoro-6-((1R,2R)-1,2,3-trihydroxypropyl)tetrahydro-2H-pyran-2-carboxylic acid at 30 mg/kg, po measured at 60 mins by reversed-phase UPLC/MS analysis. It counts as ADME, organism-based. Also noted: dose 30 mg/kg, route oral. The conditions noted are these: in vivo, 1 h.

The subject of series [2] is Mus musculus. Put plainly: Total plasma concentration in CD1 mouse assessed as (2R,3R,4R,5R,6R)-5-acetamido-4-amino-2,3-difluoro-6-((1R,2R)-1,2,3-trihydroxypropyl)tetrahydro-2H-pyran-2-carboxylic acid at 30 mg/kg, po measured at 20 mins by reversed-phase UPLC/MS analysis. It counts as ADME, organism-based. Details: dose 30 mg/kg, route oral. The settings on record: in vivo.

The nature of series [3]: Stability in simulated gastric fluid at 10 uM at pH 4 measured at 60 mins. The class given is ADME. The settings on record: read-out: Stability.
Series [4] deals with Mus musculus. Put plainly: Oral bioavailability in CD1 mouse assessed as (2R,3R,4R,5R,6R)-5-acetamido-4-amino-2,3-difluoro-6-((1R,2R)-1,2,3-trihydroxypropyl)tetrahydro-2H-pyran-2-carboxylic acid at 30 mg/kg. It counts as ADME, organism-based. The conditions noted are these: in vivo.
In series [5] the test system is Mus musculus. Put plainly: Cmax in CD1 mouse assessed as (2R,3R,4R,5R,6R)-5-acetamido-4-amino-2,3-difluoro-6-((1R,2R)-1,2,3-trihydroxypropyl)tetrahydro-2H-pyran-2-carboxylic acid at 30 mg/kg, po. The class given is ADME, organism-based. Details: dose 30 mg/kg, route oral. The conditions noted are these: in vivo.
A short description of series [6]: Stability in simulated gastric fluid at 10 uM at pH 4 measured at 15 mins. The class given is ADME. The settings on record: read-out: Stability.
The nature of series [7]: Stability in simulated gastric fluid at 10 uM at pH 1 measured at 15 mins. It counts as ADME. The conditions noted are these: read-out: Stability.
For series [8], the system named is Mus musculus. Kind of series: AUC in CD1 mouse assessed as (2R,3R,4R,5R,6R)-5-acetamido-4-amino-2,3-difluoro-6-((1R,2R)-1,2,3-trihydroxypropyl)tetrahydro-2H-pyran-2-carboxylic acid at 30 mg/kg, po. Also noted: dose 30 mg/kg, route oral. It counts as ADME, organism-based, Plasma. The conditions noted are these: in vivo.
Series [9] has as its system Mus musculus. Put plainly: Tmax in CD1 mouse assessed as (2R,3R,4R,5R,6R)-5-acetamido-4-amino-2,3-difluoro-6-((1R,2R)-1,2,3-trihydroxypropyl)tetrahydro-2H-pyran-2-carboxylic acid at 30 mg/kg, po. The class given is ADME, organism-based. Details: dose 30 mg/kg, route oral. The conditions noted are these: in vivo.
A short description of series [10]: Stability in simulated gastric fluid at 10 uM at pH 1 measured at 60 mins. The settings on record: read-out: Stability. The class given is ADME.
The nature of series [11]: Metabolic stability in mouse plasma at 10 uM measured at 60 mins. The settings on record: read-out: Stability. The class given is ADME, cell-free.
The nature of series [12]: Metabolic stability in mouse plasma at 10 uM measured at 15 mins. The class given is ADME, cell-free. The conditions noted are these: read-out: Stability.

Regarding `CCCCCCCCCCCCOC(=O)[C@]1(F)O[C@@H]([C@H](O)[C@H](O)CO)[C@H](NC(C)=O)[C@@H](N)[C@H]1F`, the concentration amounted to 2920 nM in [1] and 440 nM in series [2].
For `COC(=O)[C@]1(F)O[C@@H]([C@H](O)[C@H]2COC(=O)O2)[C@H](NC(C)=O)[C@@H](N)[C@H]1F` the same measures were 730 nM and 350 nM.
In the same order, the values of `CC(=O)N[C@@H]1[C@@H](N)[C@@H](F)[C@](F)(C(=O)OCCCCCOC(=O)C(C)(C)C)O[C@H]1[C@H](O)[C@H](O)CO` are 3770 nM and 1870 nM.
Turning to `CC(=O)N[C@@H]1[C@@H](N)[C@@H](F)[C@](F)(C(=O)NCc2ccccc2F)O[C@H]1[C@H](O)[C@H](O)CO`, the concentration in series [1] is 840 nM; in series [2] it was 660 nM.
For `CC(=O)N[C@@H]1[C@@H](N)[C@@H](F)[C@](F)(C(=O)OCCCCCOC(=O)c2ccc3ccccc3c2O)O[C@H]1[C@H](O)[C@H](O)CO` the same measures were 800 nM and 290 nM.
In the same order, the values of `CCOP(=O)(OCC)OC[C@@H](O)[C@@H](O)[C@@H]1O[C@@](F)(C(=O)OC)[C@H](F)[C@H](N)[C@H]1NC(C)=O` are 2550 nM and 1000 nM.
What is called Cmax is the maximum level reached in the sampled fluid or tissue. The Tmax is the time from dosing to the highest level. In the case of `CCCCCCCCOC(=O)OC[C@@H](O)[C@@H](O)[C@@H]1O[C@@](F)(C(=O)OC)[C@H](F)[C@H](N)[C@H]1NC(C)=O`, the remaining at 1 h, 10 µM in series [3] is 88%; in [10], 90%. The concentration was determined as 6880 nM in series [1] and 2970 nM in [2]. For the same compound, the F in series [4] came to 6.7%. In series [5], the Cmax is 4100 nM. For the same compound, the remaining at 0.25 h, 10 µM in [6] was 94%; in [7], 99%. For the same compound, in series [8], the AUC stood at 452 µmol·min. The Tmax in series [9] was 1 h.
Consider `CC(=O)N[C@@H]1[C@@H](N)[C@@H](F)[C@](F)(C(=O)NCc2ccccc2)O[C@H]1[C@H](O)[C@H](O)CO`, for which the values for the concentration in [1] and in series [2] were 590 nM and 270 nM, respectively.
For the compound `COC(=O)[C@]1(F)O[C@@H]([C@H](O)[C@H]2COC3(CCCC3)O2)[C@H](NC(C)=O)[C@@H](N)[C@H]1F`, the concentration in [1] was 1690 nM; in series [2], 490 nM.
In the same order, the values of `CC(=O)N[C@@H]1[C@@H](N)[C@@H](F)[C@](F)(C(=O)OCCCOC(=O)c2ccc3ccccc3c2O)O[C@H]1[C@H](O)[C@H](O)CO` are 300 nM and 250 nM.
Turning to `CC(=O)N[C@@H]1[C@@H](N)[C@@H](F)[C@](F)(C(=O)OCC(=O)N(C)C)O[C@H]1[C@H](O)[C@H](O)CO`, the figures for the remaining at 1 h, 10 µM in series [3] and in [10] were 74% and 25%, respectively. The concentration turned out to be 4390 nM in series [1] and 5690 nM in series [2]. Also, the remaining at 0.25 h, 10 µM is 88% in series [6] and 53% in series [7].
As to `COC(=O)[C@]1(F)O[C@@H]([C@H](O)[C@H]2COC3(CCCCC3)O2)[C@H](NC(C)=O)[C@@H](N)[C@H]1F`, the concentration in [1] is 390 nM.
In the case of `COC(=O)[C@]1(F)O[C@@H]([C@H](O)[C@H](O)COC(=O)OCC(C)C)[C@H](NC(C)=O)[C@@H](N)[C@H]1F`, the figures for the remaining at 1 h, 10 µM in series [3], in [11] and in series [10] were 86%, 17% and 74%, respectively. The values for the concentration in [1] and in [2] were 11300 nM and 9930 nM, respectively. In [4], the F came to 3.9%. In addition, the highest concentration (Cmax) in series [5] came to 2700 nM. Further, the remaining at 0.25 h, 10 µM was 98% in [6], 90% in [7] and 81% in series [12]. Further, in [8], the AUC came out at 293 µmol·min. In addition, in [9], the Tmax turned out to be 1 h.
With `CC(=O)N[C@@H]1[C@@H](N)[C@@H](F)[C@](F)(C(=O)NCc2cccc(F)c2)O[C@H]1[C@H](O)[C@H](O)CO`, the results for the concentration in series [1] and in [2] were 810 nM and 310 nM, respectively.
For `COC(=O)[C@]1(F)O[C@@H]([C@H](O)[C@H](O)COP(=O)(OC)OC)[C@H](NC(C)=O)[C@@H](N)[C@H]1F` the same measures were 620 nM and 960 nM.
For `COC(=O)[C@]1(F)O[C@@H]([C@H](O)[C@H](O)COC(=O)OCC(C)(C)C)[C@H](NC(C)=O)[C@@H](N)[C@H]1F` the same measures were 6010 nM and 2100 nM.
For the compound `CC(=O)N[C@@H]1[C@@H](N)[C@@H](F)[C@](F)(C(=O)OCC2CCCCC2)O[C@H]1[C@H](O)[C@H](O)CO`, the remaining at 1 h, 10 µM in [3] is 100%; in [11], 64%; in series [10] it was 100%. Further, the concentration was found to be 4670 nM in [1] and 3410 nM in [2]. Besides, in series [4], the F came out at 9.3%. Further, the Cmax in series [5] came out at 1200 nM. Further, the values for the remaining at 0.25 h, 10 µM in series [6], in [7] and in [12] were 100%, 100% and 98%, respectively. For the same compound, the AUC in [8] is 736 µmol·min. Further, in series [9], the Tmax stood at 1 h.
Turning to `CC(=O)N[C@@H]1[C@@H](N)[C@@H](F)[C@](F)(C(=O)OCCCOC(=O)C(C)(C)C)O[C@H]1[C@H](O)[C@H](O)CO`, the concentration in [1] was found to be 3360 nM; in series [2] it was 1300 nM.
In the same order, the values of `CC(=O)N[C@@H]1[C@@H](N)[C@@H](F)[C@](F)(C(=O)OCCC(=O)N(C)C)O[C@H]1[C@H](O)[C@H](O)CO` are 3750 nM and 1400 nM.
With `CC(=O)N[C@@H]1[C@@H](N)[C@@H](F)[C@](F)(C(=O)OC2CCCC2)O[C@H]1[C@H](O)[C@H](O)CO`, the concentration stood at 2880 nM in series [1] and 1030 nM in series [2].
Turning to `COC(=O)[C@]1(F)O[C@@H]([C@H](O)[C@H](O)CO)[C@H](NC(C)=O)[C@@H](N)[C@H]1F`, the figures for the remaining at 1 h, 10 µM in [3], in [11] and in series [10] were 99%, 6% and 75%, respectively. Besides, the concentration in [1] stood at 5340 nM; in series [2], 6440 nM. Further, in series [4], the F stood at 2.2%. Also, the Cmax in [5] is 1600 nM. Further, the remaining at 0.25 h, 10 µM was 100% in series [6], 100% in series [7] and 90% in [12]. Besides, the AUC in series [8] came to 219 µmol·min. Moreover, the Tmax in [9] came out at 1 h.
`CC(=O)N[C@@H]1[C@@H](N)[C@@H](F)[C@](F)(C(N)=O)O[C@H]1[C@H](O)[C@H](O)CO`: the results for the concentration in series [1] and in series [2] were 3330 nM and 710 nM, respectively.
In the same order, the values of `COC(=O)[C@]1(F)O[C@@H]([C@H](O)[C@H](O)COC(=O)OC(C)C)[C@H](NC(C)=O)[C@@H](N)[C@H]1F` are 2690 nM and 1680 nM.
For `COC(=O)CNC(=O)[C@]1(F)O[C@@H]([C@H](O)[C@H](O)CO)[C@H](NC(C)=O)[C@@H](N)[C@H]1F` the same measures were 4390 nM and 2550 nM.
In the same order, the values of `CCC1(CC)OC[C@H]([C@@H](O)[C@@H]2O[C@@](F)(C(=O)OC)[C@H](F)[C@H](N)[C@H]2NC(C)=O)O1` are 2250 nM and 1950 nM.
In the case of `CC(=O)N[C@@H]1[C@@H](N)[C@@H](F)[C@](F)(C(=O)OCCCCC(F)(F)F)O[C@H]1[C@H](O)[C@H](O)CO`, the results for the concentration in series [1] and in series [2] were 4020 nM and 2540 nM, respectively.
In the same order, the values of `CC(=O)N[C@@H]1[C@@H](N)[C@@H](F)[C@](F)(C(=O)NC2CCCCC2)O[C@H]1[C@H](O)[C@H](O)CO` are 2150 nM and 1140 nM.
For `COC(=O)[C@]1(F)O[C@@H]([C@H](O)[C@H](O)COC(=O)OCC2c3ccccc3-c3ccccc32)[C@H](NC(C)=O)[C@@H](N)[C@H]1F` the same measures were 750 nM and 620 nM.
For `COC(=O)[C@]1(F)O[C@@H]([C@H](O)[C@H]2COC(C(C)C)(C(C)C)O2)[C@H](NC(C)=O)[C@@H](N)[C@H]1F` the same measures were 730 nM and 620 nM.
Consider `CC(=O)N[C@@H]1[C@@H](N)[C@@H](F)[C@](F)(C(=O)NCCO)O[C@H]1[C@H](O)[C@H](O)CO`, for which the concentration in [1] was 1390 nM; in series [2], 690 nM.
As to `COC(=O)OC[C@@H](O)[C@@H](O)[C@@H]1O[C@@](F)(C(=O)OC)[C@H](F)[C@H](N)[C@H]1NC(C)=O`, the concentration in series [2] was determined as 90 nM.
For the compound `CCCCCCCCOC(=O)[C@]1(F)O[C@@H]([C@H](O)[C@H](O)CO)[C@H](NC(C)=O)[C@@H](N)[C@H]1F`, the concentration came out at 7110 nM in series [1] and 3230 nM in series [2].
In the case of `CCOC(=O)[C@]1(F)O[C@@H]([C@H](O)[C@H](O)CO)[C@H](NC(C)=O)[C@@H](N)[C@H]1F`, the concentration in series [1] is 3580 nM; in [2], 2070 nM.
